In publication PMC4939265, “Synthesis, Molecular Modeling, and Biological Evaluation of Novel Tetrahydro-β-Carboline Hydantoin and Tetrahydro-β-Carboline Thiohydantoin Derivatives as Phosphodiesterase 5 Inhibitors” (International Journal of Medicinal Chemistry, 2011):
Read-outs that look alike come from different tables or passages of the source.

How the values were obtained:
[1] = molecular target: T1, recombinant human PDE5 (Homo sapiens, UniProt O76074); assay: IMAP fluorescence polarization phosphodiesterase assay (TAMRA-cGMP substrate); format: biochemical; conditions: for inhibition at 10 µM: read-out: %PDE5 inhibition at 10 μM; for IC50: 10 concentrations, at least two replicates per concentration, read-out: PDE5 inhibition IC50; for PDE5 inhibition, result in words: SAR discussion
T1 construct: purchased BPS Biosciences, San Diego, CA
Procedure: PDE activity was measured using a modification of the IMAP fluorescence polarization phosphodiesterase assay from Molecular Devices. The assay was modified to use tetramethylrhodamine- (TAMRA-) cGMP as substrate. PDE hydrolysis of the fluorescent labeled substrate allows it to bind the IMAP binding reagent, which results in increased FP. […] The assays were performed in 96-well microtiter plates using a reaction buffer containing 10 mM Tris-HCl (pH 7.2), 10 mM MgCl2, 0.05% NaN3, and 0.1% phosphate-free BSA as the carrier. Each well contained 20 μL of recombinant enzyme (5 units//mL, BPS Biosciences, San Diego, CA) and 10 μL test agent. The reaction was initiated by the addition of 10 μL of a substrate solution containing 50 nM TAMRA-cGMP. After incubating at room temperature for 60 minutes, the reaction was terminated by adding 120 μL of binding solution. FP was measured by a Perkin Elmer Envision plate reader.
Dose response curves were analyzed using Prism 4 software (GraphPad) to calculate IC50 values using a four-parameter logistic equation. All in vitro experiments involved dose-response analysis were repeated at least twice to confirm reproducibility of IC50 values.

[2] = screening dose 10 μM, triplicate

Row | melting point [°C] | inhibition at 10 µM [1, 2] [%] | IC50 [1] [nM] | PDE5 inhibition, result in words [1] | SMILES | inhibition at 10 µM [1] [%]
1 | 188 to 191 | 29 | – | – | COc1ccc([C@@H]2c3[nH]c4ccccc4c3C[C@H]3C(=O)N(C)C(=S)N23)c(OC)c1 [Compound 17, (5R,11aS)-2-Methyl-1-oxo-5-(2,4-dimethoxyphenyl)-5,6,11,11a-tetrahydro-1H-imidazo[5,1-6,1]pyrido[3,4-b]indole-3(2H)-thione] | –
2 | 135 to 138 | 35 | – | – | COc1ccc([C@H]2c3[nH]c4ccccc4c3C[C@H]3C(=O)N(c4ccc(Cl)cc4)C(=O)N23)c(OC)c1 [Compound 15, (5S,11aS)-2-(P-Chlorophenyl)-5-(2,4-dimethoxyphenyl)-5,6,11,11a-tetrahydro-1-H-imidazo[5,1-6,1]pyrido[3,4-b]indole-1,3-dione] | –
3 | 190 to 193 | 88 | 720 | active | CCN1C(=O)[C@H]2Cc3c([nH]c4ccccc34)[C@H](c3ccc(OC)cc3OC)N2C1=O [Compound 6, (5S,11aR)-2-Ethyl-5-(2,4-dimethoxyphenyl)-5,6,11,11a-tetrahydro-1-H-imidazo[5,1-6,1]pyrido[3,4-b]indole-1,3-dione] | –
4 | 192 to 195 | 97 | 360 | active PDE5 inhibitors | CCN1C(=O)[C@@H]2Cc3c([nH]c4ccccc34)[C@@H](c3ccc(OC)cc3OC)N2C1=O [Compound 8, (5R,11aS)-2-Ethyl-5-(2,4-dimethoxyphenyl)-5,6,11,11a-tetrahydro-1-H-imidazo[5,1-6,1]pyrido[3,4-b]indole-1,3-dione] | –
5 | 224 to 227 | 87 | 560 | – | C=CCN1C(=O)[C@@H]2Cc3c([nH]c4ccccc34)[C@@H](c3ccc(OC)cc3OC)N2C1=S [Compound 19, (5R,11aS)-2-Allyl-1-oxo-5-(2,4-dimethoxyphenyl)-5,6,11,11a-tetrahydro-1H-imidazo[5,1-1,6]pyrido[3,4-b]indole-3(2H)-thione] | –
6 | 148 to 150 | 75 | 6400 | – | COC(=O)[C@@H]1Cc2c([nH]c3ccccc23)[C@@H](c2ccc(OC)cc2OC)N1 [Compound 4, (1R,3S) Methyl-1-(2,4-dimethoxyphenyl)-2,3,4,9-tetrahydro-1-H-pyrido[3,4-b]indole-3-carboxylate] | –
7 | 134 to 136 | 63 | – | – | COc1ccc([C@@H]2c3[nH]c4ccccc4c3C[C@@H]3C(=O)N(c4ccc(Cl)cc4)C(=O)N23)c(OC)c1 [Compound 13, (5R,11aR)-2-(P-Chlorophenyl)-5-(2,4-dimethoxyphenyl)-5,6,11,11a-tetrahydro-1H-imidazo[5,1-6,1]pyrido[3,4-b]indole-1,3-dione] | –
8 | 212 to 215 | 63 | – | – | COc1ccc([C@@H]2c3[nH]c4ccccc4c3C[C@H]3C(=O)N(c4ccc(Cl)cc4)C(=O)N23)c(OC)c1 [Compound 16, (5R,11aS)-2-(P-Chlorophenyl)-5-(2,4-dimethoxyphenyl)-5,6,11,11a-tetrahydro-1-H-imidazo[5,1-6,1]pyrido[3,4-b]indole-1,3-dione] | –
9 | 224 to 227 | 58 | – | – | C=CCN1C(=O)[C@H]2Cc3c([nH]c4ccccc34)[C@H](c3ccc(OC)cc3OC)N2C1=S [Compound 20, (5S,11aR)-2-Allyl-1-oxo-5-(2,4-dimethoxyphenyl)-5,6,11,11a-tetrahydro-1H-imidazo[5,1-6,6,1]pyrido[3,4-b]indole-3(2H)-thione] | –
10 | 108 to 110 | 83 | 2400 | active PDE5 inhibitors | COc1ccc([C@@H]2c3[nH]c4ccccc4c3C[C@@H]3C(=O)N(C(C)(C)C)C(=O)N23)c(OC)c1 [Compound 9, (5R,11aR)-2-Tertiarybutyl-5-(2,4-dimethoxyphenyl)-5,6,11,11a-tetrahydro-1-H-imidazo[5,1-6,1]pyrido[3,4-b]indole-1,3-dione] | –
11 | – | – | – | – | CN1CC(=O)N2[C@H](c3ccc4c(c3)OCO4)c3[nH]c4ccccc4c3C[C@@H]2C1=O [Tadalafil, tadalafil, reference compound] | 99
12 | 193 to 195 | 87 | 550 | active PDE5 inhibitors | COc1ccc([C@@H]2c3[nH]c4ccccc4c3C[C@H]3C(=O)N(C(C)(C)C)C(=O)N23)c(OC)c1 [Compound 12, (5R,11aS)-2-Tertiarybutyl-5-(2,4-dimethoxyphenyl)-5,6,11,11a-tetrahydro-1-H-imidazo[5,1-6,1]pyrido[3,4-b]indole-1,3-dione] | –
13 | 217 to 220 | 54 | – | – | CCN1C(=O)[C@@H]2Cc3c([nH]c4ccccc34)[C@H](c3ccc(OC)cc3OC)N2C1=O [Compound 7, (5S,11aS)-2-Ethyl-5-(2,4-dimethoxyphenyl)-5,6,11,11a-tetrahydro-1-H-imidazo[5,1-6,1]pyrido[3,4-b]indole-1,3-dione] | –
14 | 88 to 90 | 55 | – | – | COC(=O)[C@@H]1Cc2c([nH]c3ccccc23)[C@H](c2ccc(OC)cc2OC)N1 [Compound 3, (1S,3S) Methyl-1-(2,4-dimethoxyphenyl)-2,3,4,9-tetrahydro-1-H-pyrido[3,4-b]indole-3-carboxylate] | –
15 | 214 to 216 | 60 | – | – | COc1ccc([C@H]2c3[nH]c4ccccc4c3C[C@@H]3C(=O)N(c4ccc(Cl)cc4)C(=O)N23)c(OC)c1 [Compound 14, (5S,11aR)-2-(P-Chlorophenyl)-5-(2,4-dimethoxyphenyl)-5,6,11,11a-tetrahydro-1-H-imidazo[5,1-6,1]pyrido[3,4-b]indole-1,3-dione] | –
16 | 191 to 193 | 68 | – | – | COc1ccc([C@H]2c3[nH]c4ccccc4c3C[C@@H]3C(=O)N(C(C)(C)C)C(=O)N23)c(OC)c1 [Compound 10, (5S,11aR)-2-Tertiarybutyl-5-(2,4-dimethoxyphenyl)-5,6,11,11a-tetrahydro-1-H-imidazo[5,1-6,1]pyrido[3,4-b]indole-1,3-dione] | –
17 | 216 to 218 | 87 | 360 | active PDE5 inhibitors | CCN1C(=O)[C@H]2Cc3c([nH]c4ccccc34)[C@@H](c3ccc(OC)cc3OC)N2C1=O [Compound 5, (5R,11aR)-2-Ethyl-5-(2,4-dimethoxyphenyl)-5,6,11,11a-tetrahydro-1-H-imidazo[5,1-6,1]pyrido[3,4-b]indole-1,3-dione] | –
18 | 103 to 106 | 46 | – | – | COc1ccc([C@H]2c3[nH]c4ccccc4c3C[C@H]3C(=O)N(C(C)(C)C)C(=O)N23)c(OC)c1 [Compound 11, (5S,11aS)-2-Tertiarybutyl-5-(2,4-dimethoxyphenyl)-5,6,11,11a-tetrahydro-1-H-imidazo[5,1-6,1]pyrido[3,4-b]indole-1,3-dione] | –
19 | 86 to 88 | 77 | 2500 | – | COC(=O)[C@H]1Cc2c([nH]c3ccccc23)[C@@H](c2ccc(OC)cc2OC)N1 [Compound 1, (1R, 3R) Methyl-1-(2,4-dimethoxyphenyl)-2,3,4,9-tetrahydro-1-H-pyrido[3,4-b]indole-3-carboxylate] | –
20 | 188 to 190 | 23 | – | – | COc1ccc([C@H]2c3[nH]c4ccccc4c3C[C@@H]3C(=O)N(C)C(=S)N23)c(OC)c1 [Compound 18, (5S,11aR)-2-Methyl-1-oxo-5-(2,4-dimethoxyphenyl)-5,6,11,11a-tetrahydro-1-H-imidazo[5,1-1,6]pyrido[3,4-b]indole-3(2H)-thione] | –
21 | 146 to 147 | 63 | – | – | COC(=O)[C@H]1Cc2c([nH]c3ccccc23)[C@H](c2ccc(OC)cc2OC)N1 [Compound 2, (1S,3R) Methyl-1-(2,4-dimethoxyphenyl)-2,3,4,9-tetrahydro-1-H-pyrido[3,4-b]indole-3-carboxylate] | –
